From US11707431B2, “Dental strips for the delivery of specifically targeted antimicrobial peptides” (C3 Jian, LLC, priority 2017, dated 2023)
No end group written: not given here.

test system: not given; test: not given; details: in vivo; cited from earlier work

| Compound | reduce cavities |
| --- | --- |
| OC[C@@H](O)[C@H](O)[C@@H](O)CO [Xylitol] | up to 80% |

same assay, conditions: long-term; cited from earlier work

| Compound | long-term reduction in caries |
| --- | --- |
| OC[C@@H](O)[C@H](O)[C@@H](O)CO [Xylitol] | 88-93% |

test system: MRSA; test: MIC against MRSA; assay type: cell-based; details: not given

| Compound | MIC |
| --- | --- |
| FESKILNASKELDKEKKVNTALSFNSHQDFAKAYQNGKI [PF-606] | MRSA, 50 μM |
| FIRKFLQKLHL [K-16] | MRSA, 25 μM |
| GSVIKKRRKRMAKKKHRKLLKKTRIQRRRAGK [PF-527] | MRSA, 50 μM |
| KFQGEFTNIGQSYIVSASHMSTSLNTGK [PF-583] | MRSA, 50 μM |
| MGIIAGIIKFIKGLIEKFTGK [PF-006] | MRSA, 50 μM |
| MRFGSLALVAYDSAIKHSWPRPSSVRRLRM [PF-672] | MRSA, 1.56 μM |
| NYAVVSHT [PF-209] | MRSA, 50 μM |
| RESKLIAMADMIRRRI [PF-545] | MRSA, 50 μM |
| VLPFPAIPLSRRRACVAAPRPRSRQRAS [PF-168] | MRSA, 50 μM |

test system: S. mutans; test: not given; details: Streptococcus mutans

| Compound | % viability remaining [%] |
| --- | --- |
| TAFRLANRSATQALGK [F2/6/10-A2/6/10_C16G2] | 78 |
| TFFRLFNRSFTQALAK [G15-A15_C16G2] | 47 |
| TFFRLFNRSFTQALDK [G15-D15_C16G2] | 47 |
| TFFRLFNRSFTQALFK [G15-F15_C16G2] | 29 |
| TFFRLFNRSLTQALGK [F10-L10_C16G2] | 30 |
| TFFRLFNRSQTQALGK [F10 to Q10_C16G2] | 73 |
| TFFRLLNRSFTQALGK [F6-L6_C16G2] | 43 |
| TFFRLQNRSFTQALGK [F6 to Q6_C16G2] | 79 |
| TLFRLFNRSFTQALGK [F2-L2_C16G2] | 63 |
| TLFRLLNRSLTQALGK [F2F6F10-L2L6L10_C16G2] | 26 |
| TQFRLFNRSFTQALGK [F2 to Q2_C16G2] | 47 |
| TQFRLQNRSQTQALGK [F7/11/15 sub Q_C16G2] | 93 |
| TWFRLFNRSFTQALGK [F2-W2_C16G2] | 45 |
